The text below walks through data of patent publication US5278045A, “Method and compositions to screen compounds for enhancement of the cholinergic, dopaminergic and serotonergic function” (Du Pont Merck Pharmaceutical Company, priority 1990, dated 1994).

Each structure is given as a SMILES string.

One experiment has as its target DuP 996 binding protein. Nature of the experiment: Radioreceptor screening assay (displacement of tritiated DuP 996). Further details: species or system rat. The following applies: inhibition of binding of 10 nM tritiated DuP 996, pH 7.4, 25° C., 60 minutes. The procedure:
Male Sprague-Dawley rats (Charles River Breeding Laboratories) at 200-250 g were euthanatized by decapitation. Rat brain regions were dissected according to Heffner et al., Pharmacol. Biochem. Behav., 13, 453 (1980). Brain membranes were prepared by the method of Tam, Proc. Natl. Acad. Sci. USA, 80, 6703 (1983). The brain tissues were homogenized (20 sec) in 10 vol (wt/vol) of ice-cold 0.32M sucrose with a Brinkman Polytron (setting 8). The homogenate was centrifuged at 920×g for 10 min at 4° C. The supernatant was centrifuged at 47,000×g for 20 min. The resulting membrane pellet was resuspended in 10 vol (original wt/vol) of 50 mM Tris-HCl (pH 7.4) and incubated at 37° C. for 30 min to degrade and dissociate bound endogenous ligands. The membranes were then centrifuged at 47,000×g for 20 min and resuspended in 50 mM Tris-HCl.
Compounds to be screened were incubated with brain membranes. (1-2 mg protein) in 50 mM Tris-HCl buffer, pH 7.4, for 10 minutes in 25° C. Then 10 nM tritiated DuP 996 or its active structural analogs were added and incubated at 25° C. for 60 minutes. The samples were filtered on Whatman GF/B glass filters which had been soaked in 0.2% polyethylenimine and washed 3 times each with 5 ml of ice-cold Tris buffer. Nonspecific binding was determined by performing binding in the presence of 10 μM DuP 996. The control represents specific binding in the absence of compounds to be screened. Screened compounds which inhibited the specific binding of tritiated DuP 996 or analogs to its binding protein should be active in binding to the same protein. This is illustrated further in Example 4, Part B.

Another experiment concerns ACh release. The experiment in a line: Neurotransmitter release assay: stimulated ACh release from brain slices. More on the design: species or system rat. The note with it: concentration to enhance stimulated release of ACh by 100% (2-fold) over control, from dose response curves. As for the experimental part:
Male Wistar rats weighing 175-200 g were euthanatized and the brains were dissected out immediately. Slices (0.3 mm thick) from the parietal cortex were prepared manually by using a recessed Lucite® guide. Slices (1.5 mm thick) from the hippocampus and the caudate nucleus were prepared by using a slotted brain holder. All slices were subsequently cut into 0.25×0.25 mm squares with a McIlwain tissue chopper.
Labeling of transmitter stores in slices was prepared by the following methods. For ACh release, slices (approximately 100 mg wet weight) were incubated in 10 ml Krebs-Ringer (KR) medium containing (mM): NaCl(116), KCl(3), CaCl2 (1.3), MgCl2 (1.2), KH2 PO4 (1.2), Na2 SO4 (1.2), NaHCO3 (25) and glucose(11), to which 10 μCi ^3 H-choline (specific activity approx. 80 Ci/mmol: NEN) and 10 nmol unlabeled choline had been added to give a final concentration of 10^-6 M. Incubation was carried out for 30 min at 37° C. under a steady flow of 95% O2 /5% CO2. Under these conditions, part of the radioactive choline taken up is converted into radioactive ACh by cholinergic nerve endings, stored in synaptic vesicles, and released upon depolarization by high-K^+ -containing medium [Molenaar et al., 1973a]. For dopamine (DA), serotonin (5-HT), and norepinephrine (NE) release, slices (approximately 100 mg wet weight) were incubated in KR medium containing 0.01 mM nialamide at 37° C. under a steady flow of 95% O2 /5% CO2. The MAO-inhibitor nialamide was added to the medium in order to inhibit metabolism to the monoamines. Incubation was for 30 min in 10 ml of KR medium to which 10 μCi ^3 H-dopamine, ^3 H-norepinephrine, or ^3 H-5-hydroxytryptamine (specific activity 30, 45, and 78 Ci/mmol, respectively: all from NEN) had been added.
Separate experiments were performed for the release of each neurotransmitter. After labeling of the transmitter stores, the slices were washed three times with non-radioactive KR medium and transferred to a superfusion apparatus to measure the drug effects on transmitter release [Schoemaker et al., Psychopharmacology 74, 137 (1981)]. The superfusion apparatus consisted of 10 thermo-jacketed glass columns of 5 mm diameter which were provided with GF/F glass fiber filters to support the brain slices (approximately 10 mg tissue/column). Superfusion was carried out with KR medium at a rate of 0.3 ml/min. For ACh release, 10^-5 M hemicholinium-3 was added to the medium to prevent the uptake of choline formed during superfusion from phospholipids and released ACh, so that it could not be subsequently converted into newly synthesized ACh, which would be released in preference to the pre-formed, labeled ACh. The medium was delivered by a 25-channel peristaltic pump (Ismatec; Brinkman) and maintained at 37° C. by a thermostated stainless-steel heating coil before entering the superfusion column. Each column was provided with a four-way slider valve (Beckman Instruments) which allowed rapid change of low-to-high-K^+ -KR-medium and with two 10-channel, 3-way valves which were used to change form drug-free to drug-containing low- and high-K^+ -KR media.
After 15 min washout of non-specifically bound radioactivity during superfusion, the collection of fractions of 4 min (1.2 ml) each was started. After 3×4 min, the KR medium was changed to a KR medium with 25 mM KCl (ACh, 5-HT release) or 12.5 mM KCl (DA release) (high K^+ -KR medium; S1). Depolarization-induced stimulation of release by high-K^+ -KR medium was then substituted by drug- or vehicle-containing low- and high-K^+ -KR medium and superfusion continued for 3×4 min with low-K^+ -KR medium, for 1×4 min with high-K^+ -KR medium (S2), and for 2×4 min with low-K^+ -KR medium.
Compounds were added to the medium by 100-fold dilution of appropriate stock solutions (in 0.9% NaCl/H2 O) with either low- or high-K^+ -KR medium.
All superfusion fractions were collected in liquid scintillation counting vials.

On to `c1ccc2c(c1)Sc1ccccc1C2(Cc1ccncc1)Cc1ccncc1` [Compound 6, 4,4'-[9H-Thioxanthen-9,9-diylbis(methylene)]pryidine], for which the IC50 on DuP 996 binding protein stood at 0.051 µM. Further, in the experiment with ACh release, the “ACh Release EC100” value was 1,500 nM.
As for `Cc1ccc2c(c1)N(c1ccccc1)C(=O)C2(Cc1ccncc1)Cc1ccncc1` [Compound 14, 3,3-Bis(4-pyridinylmethyl)-1,3-dihydro-6-methyl-1-phenyl-2H-indol-2-one], the IC50 at DuP 996 binding protein was 0.198 µM. In the experiment with ACh release, the “ACh Release EC100” value is on record as 4,800 nM.
For `O=C1N(c2ccccc2)c2ccccc2C1(Cc1ccncn1)Cc1ccncn1` [Compound 16, 3,3-Bis(4-pyrimidinylmethyl)-1-phenyl-1H-indol-2(3H)-one], at DuP 996 binding protein, the IC50 was 0.57 µM. For the same molecule, the “ACh Release EC100” value in the experiment with ACh release was 3,500 nM.
As to `c1ccc2c(c1)-c1ccccc1C2(Cc1ccncc1)Cc1ccncc1` [Compound 9, 9,9-Bis(4-pyridinylmethyl)-9H-fluorene], on DuP 996 binding protein, the IC50 was 0.062 µM. Further, the “ACh Release EC100” value in the experiment on ACh release worked out at 340 nM.
In turn, `O=C1c2ccccc2C(Cc2ccncc2)(Cc2ccncc2)c2ccccc21` [Compound 4, 10,10-Bis(4-pyridinylmethyl)-9(10H)-anthracenone] had a 50% inhibitory concentration (IC50) at DuP 996 binding protein of 0.034 µM. Further, the “ACh Release EC100” value with ACh release is 90 nM.
The matching figures for `O=C1N(c2ccccc2)c2ccccc2C1(Cc1ccncc1)Cc1ccncn1` (centres unmarked) [Compound 13, 1,3-Dihydro-1-phenyl-3-(4-pyridinylmethyl)-3(4-pyrimidinylmethyl)-2H-indol-2-one]: 0.179 µM and 1,500 nM.
The like results for `O=C1C(Cc2cccnc2)c2ccccc2N1c1ccccc1` (centres unmarked) [Compound 21, 1,3-Dihydro-1-phenyl-3-(3-pyridinylmethyl)-2H-indol-2-one] were, in that order, 6.03 µM and 12,000 nM.
As to `O=C1N(c2ccccc2)c2ccccc2C1(c1cncnc1)c1cncnc1` [Compound 24, 3,3-Bis(5-pyrimidinyl)-1,3-dihydro-1-phenyl-2H-indol-2-one], on DuP 996 binding protein, the IC50 is 75.9 µM. Moreover, in the experiment on ACh release, the “ACh Release EC100” value is recorded as 980,000 nM.
For the molecule `c1cnc2c(c1)C(Cc1ccncc1)(Cc1ccncc1)c1cccnc1-2` [Compound 12, 5,5-Bis(4-pyridinyl-methyl)-5H-cyclopenta(2,1-B:3,4-B')-dipyridine], at DuP 996 binding protein, the 50% inhibitory concentration (IC50) came out at 0.168 µM. Besides, the “ACh Release EC100” value with ACh release is 1,400 nM.
Molecule `Cc1ccc2c(c1)C(Cc1ccncc1)(Cc1ccncc1)c1ccccc1-2` [Compound 8, 4-[2-Methyl-9-(4-pyridinyl-methyl)-9H-fluoren-9-ylmethyl]pyridine] came in with an IC50 at DuP 996 binding protein of 0.062 µM. Besides, the “ACh Release EC100” value in the experiment on ACh release is 170 nM.
The like results for `O=C1N(c2ccccc2)c2ccccc2C1(Cc1ccncc1)CC1CCCO1` (centres unmarked) [Compound 18, 1,3-Dihydro-1-phenyl-3-(4-pyridinylmethyl)-3-(tetrahydro-2-furanyl-methyl)-2H-indol-2-one] were, in that order, 1.04 µM and 34,000 nM.
Consider `O=C1N(Cc2ccccc2)c2ccccc2C1(Cc1ccncc1)Cc1ccncc1` [Compound 19, 3,3-Bis(4-pyridinyl-methyl)-1,3-dihydro-1-(phenylmethyl)-2H-indol-2-one], for which the IC50 on DuP 996 binding protein was found to be 1.17 µM. In addition, the “ACh Release EC100” value in the experiment on ACh release is listed as 4,500 nM.
Molecule `Cc1nc(CC2(Cc3csc(C)n3)C(=O)N(c3ccccc3)c3ccccc32)cs1` [Compound 30, 3,3-Bis(2-methyl-4-thiazolylmethyl)-1,3-dihydro-1-phenyl-2H-indol-2-one] displayed an IC50 at DuP 996 binding protein of 1200 µM. Besides, the “ACh Release EC100” value with ACh release is recorded as 980,000 nM.
In the case of `CN1CCC(CC2(CC3CCN(C)CC3)C(=O)N(c3ccccc3)c3ccccc32)CC1` [Compound 25, 3,3-Bis(1-methyl-4-piperidinylmethyl)-1,3-dihydro-1-phenyl-2H-indol-2-one], the IC50 at DuP 996 binding protein stood at 970 µM. In addition, in the experiment on ACh release, the “ACh Release EC100” value is 1,200,000 nM.
With `O=C1N2c3ccccc3CCc3cccc(c32)C1(Cc1ccncc1)Cc1ccncc1` [Compound 5, 2,2-Bis(4-pyridinylmethyl)-6,7-dihydro-indole(1,7-AB)(1)-benzapin-1(2H)-one], on DuP 996 binding protein, the IC50 came out at 0.046 µM. Also, the “ACh Release EC100” value in the experiment on ACh release is given as 2,500 nM.
The matching figures for `O=C1N(c2ccccc2)c2ccccc2C1(Cc1ccncc1)Cc1cn[nH]c1` (centres unmarked) [Compound 17, 1,3-Dihydro-1-phenyl-3-(1H-pyrazol-4-ylmethyl)-3-(4-pyridinyl-methyl)-2H-indol-2-one]: 0.67 µM and 3,000 nM.
For `O=C1N(c2ccccc2)c2ccccc2C1(Cc1cnccn1)Cc1cnccn1` [Compound 20, 3,3-Bis(2-pyrazinylmethyl)-1-phenyl-1H-indol-2(3H)-one], the IC50 on DuP 996 binding protein was found to be 4.2 µM. For the same molecule, in the experiment with ACh release, the “ACh Release EC100” value is reported as 11,000 nM.
As to `O=C1C(C(O)(c2ccccn2)c2ccccn2)c2ccccc2N1c1ccccc1` (centres unmarked) [Compound 26, 3[Bis(2-pyridinyl)-(hydroxy)methyl]-1,3-dihydro-1-phenyl-2H-indol-2-one], at DuP 996 binding protein, the IC50 stood at 980 µM. Besides, the “ACh Release EC100” value in the experiment with ACh release was 1,000,000 nM.
In turn, `O=C1N2CCCc3cccc(c32)C1(Cc1ccncc1)Cc1ccncc1` [Compound 15, 1,1-Bis(4-pyridinylmethyl)5,6-dihydro-4H-pyrollo(3,2,1-IJ)quinolin-2(1H)-one] registered a concentration for half-maximal inhibition (IC50) at DuP 996 binding protein of 0.558 µM. Also, the “ACh Release EC100” value with ACh release is 14,000 nM.
For the molecule `COc1ccc(C(C#N)(Cc2ccncc2)Cc2ccncc2)cc1` [Compound 10, α-(4-Methoxyphenyl)-α-(4-pyridinylmethyl)-4-pyridinepropane nitrile], the IC50 at DuP 996 binding protein amounted to 0.119 µM. The “ACh Release EC100” value in the experiment on ACh release is 1,600 nM.
Molecule `O=C1N(c2ccccc2)c2ccccc2C1(Cc1ccnnc1)Cc1ccnnc1` [Compound 28, 3,3-Bis(4-pyridazinyl-methyl)-1,3-dihydro-1-phenyl-2H-indol-2-one] registered an IC50 at DuP 996 binding protein of 1000 µM. Also, the “ACh Release EC100” value with ACh release is given as 1,000,000 nM.
For `c1ccc(CC2(Cc3ccccn3)c3ccccc3-c3ccccc32)nc1` [Compound 29, 2-[9-(2-pyridinylmethyl)-9H-fluoren-9-ylmethyl]-pyridine], on DuP 996 binding protein, the IC50 came to 1100 µM. The “ACh Release EC100” value in the experiment on ACh release is listed as 990,000 nM.

Broadly, the IC50 is the concentration at which inhibition is half-maximal.
